According to US10357500B2, “Neuro-protective agents and uses thereof” (Guangzhou Cellprotek Pharmaceutical Co., Ltd., priority 2014, dated 2019):
Entries after “also recorded” stand apart in the source; their conditions may differ.

Legend:
Type in all cases: in vivo
[1] = test system: Macaca fascicularis in acute hypobaric hypoxia; assay: Cerebral water content of left hemisphere, acute hypobaric hypoxia model; conditions: for Cerebral Water Content (%): left hemisphere, 48 hours at simulated 7,500 meters, 10 mg/kg i.v. and 30 mg/kg i.m., repeated after 24 hours; for increase of cerebral water content (in words): acute hypobaric hypoxia, simulated 7,500 meters, vs solvent control
Source text: (§1) 17 healthy male Macaca fascicularis, 6 to 6.5 years-old, weighted 6.8-7.5 kg, were used. The use of laboratory animals is approved by Committee of laboratory animal management and use and experimental animal ethics committee. The experiment scheme complies with rules concerning animal protection, animal welfare and ethical principles. The 17 Macaca fascicularis were grouped randomly into 3 groups (Table 1).
(§2) The low pressure chamber group is a platform used to simulate low temperature and low pressure plateau environment. The system can be manipulated to simulate a low pressure environment having any altitude below 10000 meters and any temperature above −30° C. The ascending velocity: 3 m/second (0 to 6000 m); descending velocity: 2 m/second (6000 m to 7500 m); constant temperature: 22° C.; average air flow velocity: 150 m^3/h.
(§3) (1) An altitude of 7,500 meters was simulated by manipulation of the low-pressure chamber to cause acute hypoxia in Macaca fascicularis.
(§4) The Macaca fascicularis raised in the laboratory animal housing were labeled and transferred to the low-pressure chamber. The Macaca fascicularis was fed for 1 more day in the chamber in order to make them adapt to the experimental environment. The pressure in the low-pressure chamber was adjusted to simulate altitudes of 3,000, 4,500, and 6,000 meters, staying at each altitude for 30 minutes, followed by simulation of an altitude of […] for 24 hours. The animals were then treated with drugs individually at pre-determined doses. After treatment at 7,500 meters for 48 hours, the altitude was decreased to 6,000 meters at a velocity of 3 m/s. The animals were subject to ketamine anesthesia, sacrificed, dissected and subject to sampling. The samples were fixed. Animals grouped in plain controls were raised in an animal housing at an altitude of 350 m before assessment and sacrifice.
(§5) (2) The animals in 5α-androstane-3β,5,6β-triol treatment group were administered through intravenous injection 10 mL of 5α-androstane-3β,5,6β-triol solution in glucose saline at a dosage of 10 mg/kg before simulation, after 30 min at 3,000 meters, and after 30 min at 4,500 meters, respectively. The animals in solvent control group were given 10 mL of glucose saline through intravenous injection.
(§6) (3) The animals in 5α-androstane-3β,5,6β-triol treatment group were administered by skeletal muscle injection at 5 different points with 5α-androstane-3β,5,6β-triol sustained-release formulation at a dosage of 30 mg/kg after 30 min at 6,000 meters. Acute plateau hypoxia models were administered 10 mL of glucose saline through intravenous injection.
(4) The animals in 5α-androstane-3β,5,6β-triol treatment group were administered through intravenous injection 10 mL of 5α-androstane-3β,5,6β-triol injection in glucose saline at a dosage of 10 mg/kg after 24 hours at 7,500 meters, and further by skeletal muscle injection at 5 different points with 5α-androstane-3β,5,6β-triol sustained-release formulation at a dosage of 30 mg/kg. […]
Cerebral water content was measured according to a reported method (Patir H, Sarada S K, Singh S, Mathew T, Singh B, Bansal A. Quercetin as a prophylactic measure against high altitude cerebral edema. Free Radic Biol Med 2012 Aug. 15; 53(4):659-68). […] Brains of the animals were rapidly taken out and the wet weights of the left hemispheres were measured. The left hemispheres were then placed in a drying oven at 60° C., and were measured their weights daily at a fixed time until no weight change was observed. […]

[2] = test system: Macaca fascicularis in acute hypobaric hypoxia; assay: Transmission electron microscopy of the cortical tissue of the frontal lobe (vasogenic edema); conditions: frontal lobe cortex, transmission electron microscope, vs solvent control
Source text: as §1, §2, §3, §4, §5, §6
(4) The animals in 5α-androstane-3β,5,6β-triol treatment group were administered through intravenous injection 10 mL of 5α-androstane-3β,5,6β-triol injection in glucose saline at a dosage of 10 mg/kg after 24 hours at 7,500 meters, and further by skeletal muscle injection at 5 different points with 5α-androstane-3β,5,6β-triol sustained-release formulation at a dosage of 30 mg/kg. Acute plateau hypoxia models were administered 10 mL of glucose saline through intravenous injection.
The cortical tissues of the frontal lobes of the animals were taken out and cut to provide brain pieces of 1 mm^3, which were fixed in a stationary liquid of 2.5% glutaraldehyde to prepare ultrathin sections. The morphology of neurons and the structure of blood vessels were observed by transmission electron microscopy.

[3] = test system: Macaca fascicularis in acute hypobaric hypoxia; assay: Neurological score, acute hypobaric hypoxia model (simulated 7,500 m); conditions: for neurological function / neurological score (in words): acute hypobaric hypoxia, simulated 7,500 meters, vs solvent control
Source text: as §1, §2, §3, §4, §5
as §6, with “injection. […]” for “injection.”
Animals were stayed at simulated altitude of 7,500 meters for 24 hours before descending to 6,000 meters at a speed of 3 m/s. The neurological scores were evaluated and recorded according to a reported method (Zhu et al, An improved method of neurological score for non-human primates, Chinese Journal of Comparative Medicine, 2011, 21 (9): 58-62). The neurological score was evaluated and recorded by two trained observers who were neither aware of the grouping nor involved in the drug administering. […]
The results were indicated as mean±standard deviation, and statistically analyzed by software SigmaPlot. […]

[4] = test system: Macaca fascicularis in acute hypobaric hypoxia; assay: HE staining of the cortical tissue of the frontal lobe (neuronal vacuolar degeneration); conditions: frontal lobe cortex, vs solvent control
Source text: as §1, §2, §3
The Macaca fascicularis raised in the laboratory animal housing were labeled and transferred to the low-pressure chamber. The Macaca fascicularis was fed for 1 more day in the chamber in order to make them adapt to the experimental environment. […] The animals were then treated with drugs individually at pre-determined doses. […]

Structure (SMILES): C[C@@]12CCC[C@H]1[C@@H]1C[C@@H](O)[C@@]3(O)C[C@@H](O)CC[C@]3(C)[C@H]1CC2 [5α-androstane-3β,5,6β-triol]
- Cerebral Water Content (%) ([1]; plain control 76.155, solvent control 76.714): 76.283 ± 0.235 %
- Cerebral Water Content (%) ([1]; plain control 76.155, solvent control 76.714, listed as 5α-androstane-3β3,5,6β-triol): 76.283%
- vasogenic edema / Virchow-Robin space of cortical capillary vessels (in words) [2]: reduced; also recorded: no significant vasogenic edema occurred
- neurological score ([3]; 24 hours at simulated 7,500 meters, 10 mg/kg i.v. x3 and 30 mg/kg i.m. sustained-release, solvent control 31.6±4.2, mean±SD): 20.5±5.7
- neurological function / neurological score (in words) [3]: significantly improved
- neuronal vacuolar degeneration (in words) [4]: reduced neuronal vacuolar degeneration

Structure (SMILES): CC(C)CCC[C@@H](C)[C@H]1CC[C@H]2[C@@H]3C[C@@H](O)[C@@]4(O)C[C@@H](O)CC[C@]4(C)[C@H]3CC[C@]12C [Compound I, cholestane-3β,5α,6β-triol]
- vasogenic edema / Virchow-Robin space of cortical capillary vessels (in words) [2]: effectively reduce
- neuronal vacuolar degeneration (in words) [4]: effectively reduce

Structure (SMILES): CCC=C1CC[C@H]2[C@@H]3C[C@@H](O)[C@@]4(O)C[C@@H](O)CC[C@]4(C)[C@H]3CC[C@]12C [Compound II, 17-propylidene-androstane-3β,5α,6β-triol]
- increase of cerebral water content (in words) [1]: inhibited increase of the cerebral water content
- vasogenic edema / Virchow-Robin space of cortical capillary vessels (in words) [2]: no significant angioedema
- neurological function / neurological score (in words) [3]: effectively protected

Structure (SMILES): CC(C)C1CC[C@H]2[C@@H]3C[C@@H](O)[C@@]4(O)C[C@@H](O)CC[C@]4(C)[C@H]3CC[C@]12C (stereo partly drawn) [Compound III, 17-isopropyl-androstane-3β,5α,6β-triol]
- increase of cerebral water content (in words) [1]: inhibited increase of the cerebral water content
- vasogenic edema / Virchow-Robin space of cortical capillary vessels (in words) [2]: no significant angioedema
- neurological function / neurological score (in words) [3]: effectively protected

Structure (SMILES): CCCCC1CC[C@H]2[C@@H]3C[C@@H](O)[C@@]4(O)C[C@@H](O)CC[C@]4(C)[C@H]3CC[C@]12C (stereo partly drawn) [Compound IV, 17-butyl-androstane-3β,5α,6β-triol]
- increase of cerebral water content (in words) [1]: inhibited increase of the cerebral water content
- vasogenic edema / Virchow-Robin space of cortical capillary vessels (in words) [2]: no significant angioedema
- neurological function / neurological score (in words) [3]: effectively protected
